Particle density data for three compounds are collected here from US20230158066A1, “ENCAPSULATED CARBONYL IRON SALT COMPOSITIONS AND PROCESS THEREOF” (priority 2020, published 2023).

The nature of the data set: Particle density (bulk density), USP <616> method 1. The format is physicochemical. As to conditions: untapped powder, W/V0. The source says:
Particle density or Bulk density is the density of the solids (determined by the composition), which determines the particle density, together with the amount of occluded air. It's the ratio of mass to volume (including the inter-particulate void volume) of an untapped powder sample. It depends on both the density of powder particle and arrangement of the particles. The bulk density influenced by preparation method, treatment and storage of the samples.
The method used as per the reference of USP general chapter <616> method 1. • 1. Pass a quantity of material sufficient to complete the test through sieve greater than equal to 1 mm, if necessary to break up agglomerates that may formed. • 2. Fill the test sample approx. 150 g with 0.1% accuracy (W) in dry gradual 250 mL cylinder (readable to 2 mL) carefully. • 3. Read the unsettled apparent volume (V0) to the nearest graduated unit. • 4. Calculate the particle density by following formula;
On to `O=C([O-])/C=C/C(=O)[O-].[Fe+2]` [Ferrous fumarate], for which the Particle density is 2.14 g/mL.
As to Ferrous Ascorbate, the Particle density is recorded as 0.75 g/mL.
The value for Ferrous sulfate was 1.26 g/mL.
